Measured values taken from PMC10135964, “One Scaffold, Two Conformations: The Ring-Flip of the Messenger InsP8 Occurs under Cytosolic Conditions” (Biomolecules, 2023).
Where two headings read alike, the source gives them in different places.

Experiments:
[1] = parameters: method as in PMID 27460418, PMID 15708805, doi:10.1016/j.molstruc.2007.03.035; details: 31P NMR (22 °C); equation as printed refers to InsP8 complexes; cited from earlier work
[2] = parameters: method as in PMID 27460418, PMID 15708805, doi:10.1016/j.molstruc.2007.03.035; details: Potentiometry (37 °C); equation as printed refers to InsP8 complexes; cited from earlier work
[3] = 1H,13C BIRD-HMQC NMR quantification of axial vs. equatorial conformer; assay type: physicochemical; details: 50 µM, 130 mM KCl, 10 mM NaCl, 4 °C
Method: Samples for HMQC-NMR studies contained 50 µM ^13C6-labeled InsPs (InsP6/5PP-InsP5/InsP8), 2 mM bis-tris-propane, 130 mM KCl, 10 mM NaCl and 0/50/250 µM MgCl2 in D2O.
BIRD-HMQC NMR spectra were recorded at 277 K and 600 MHz (^1H frequency) on a Bruker AV-III NMR spectrometer (Bruker Biospin, Rheinstetten, Germany) using cryogenically cooled 5 mm QCI-triple resonance probe equipped with one-axis self-shielded gradients. The spectrometer was operated using topspin 3.5 pl6 software. Instrument temperature was calibrated against […] according to Findeisen et al.. Acquisition parameters were SW(^13C): 60–90 ppm, NS: 128, TD(^13C): 64.
BIRD-HMQC spectra were recorded at 277 K as described above, with samples containing 200 µM InsPs, 130 mM KCl, 10 mM NaCl, 2mM BTP in D2O. pH was set to pH* 9.5 for InsP6, pH* 8.8 for 5PP-InsP5 and pH* 8.5 for InsP8 (pH = 0.929 × pH* + 0.42 [35]). NOESY-HMQC spectra of the same samples were subsequently recorded using mixing times of 80 ms for InsP6 and 5PP-InsP5 and 200 ms for InsP8. Conformational exchange on the time-scale of the experiment created cross-peaks between corresponding peaks in different conformations, which allowed us to assign each peak of the equatorial conformer to its axial counterpart.

[4] = parameters: method as in doi:10.1351/pac199163071015; details: 150 mM NaCl, 37 °C; cited from earlier work
[5] = 1H,13C BIRD-HMQC NMR quantification of axial vs. equatorial conformer; assay type: physicochemical; details: pH* 8.5, 5 equiv. Ca2+, 130 mM KCl, 10 mM NaCl
[6] = pH* 9.5, without divalent cations

O=P(O)(O)CP(=O)(O)O[C@H]1[C@H](OP(=O)(O)O)[C@@H](OP(=O)(O)O)[C@@H](OP(=O)(O)O)[C@@H](OP(=O)(O)O)[C@@H]1OP(=O)(O)O [5PCP-InsP5]
log K, 2 K^+ + H5L^9− ↔ [K2(H5L)]^7− [1]: 2.79(7)
log K, 3 K^+ + H4L^10− ↔ [K3(H4L)]^7− [1]: 3.94(4)
log K, 4 K^+ + H2L^12− ↔ [K4(H2L)]^8− [1]: 4.61(3)
log K, 4 K^+ + H3L^11− ↔ [K4(H3L)]^7− [1]: 4.50(5)
log K, 5 K^+ + HL^13− ↔ [K5(HL)]^8− [1]: 6.57(3)
log K, L^14− + 2 H^+ ↔ H2L^12− [1]: 22.42(2)
log K, L^14− + 3 H^+ ↔ H3L^11− [1]: 32.26(2)
log K, L^14− + 4 H^+ ↔ H4L^10− [1]: 40.94(2)
log K, L^14− + 5 H^+ ↔ H5L^9− [1]: 47.67(2)
log K, L^14− + 6 H^+ ↔ H6L^8− [1]: 51.93(2)
log K, L^14− + 7 H^+ ↔ H7L^7− [1]: 55.64(2)
log K, L^14− + H^+ ↔ HL^13− [1]: 11.48(1)
log K, Mg^2+ + H2L^12− + 3 K^+ ↔ [MgK3(H2L)]^7− [1]: 9.75(7)
log K, Mg^2+ + H4L^10− + 2 K^+ ↔ [MgK2(H4L)]^6− [1]: 6.96(7)
log K, Mg^2+ + H5L^9− + K^+ ↔ [MgK(H5L)]^6− [1]: 5.26(7)
log K, Mg^2+ + H6L^8− ↔ [Mg(H6L)]^6− [1]: 4.71(7)
log K, Mg^2+ + HL^13− + 4 K^+ ↔ [MgK4(HL)]^7− [1]: 11.64(5)

O=P(O)(O)O[C@H]1[C@H](OP(=O)(O)O)[C@@H](OP(=O)(O)O)[C@H](OP(=O)(O)O)[C@@H](OP(=O)(O)O)[C@H]1OP(=O)(O)O [InsP6]
log K, 3 K^+ + H4L^10− ↔ [K3(H4L)]^7− [2]: 3.36(5)
log K, 4 K^+ + H3L^11− ↔ [K4(H3L)]^7− [2]: 5.42(5)
log K, L^14− + 2 H^+ ↔ H2L^12− [2]: 21.3(1)
log K, L^14− + 3 H^+ ↔ H3L^11− [2]: 31.63(6)
log K, L^14− + 4 H^+ ↔ H4L^10− [2]: 40.42(6)
log K, L^14− + 5 H^+ ↔ H5L^9− [2]: 47.32(6)
log K, L^14− + 6 H^+ ↔ H6L^8− [2]: 53.04(7)
log K, L^14− + 7 H^+ ↔ H7L^7− [2]: 56.14(9)
log K, L^14− + H^+ ↔ HL^13− [2]: 10.8(1)
proportion in axial conformation ([3]; pH* 9.0, 1 equiv. Mg2+): about 30%
proportion in axial conformation ([3]; pH* 9.0, without divalent cations): traces
proportion in axial conformation ([3]; pH* 9.5, 1 equiv. Mg2+): ~90%
proportion in axial conformation [3, 6]: less than half

Nc1ncnc2c1ncn2[C@@H]1O[C@H](COP(=O)(O)OP(=O)(O)OP(=O)(O)O)[C@@H](O)[C@H]1O [ATP]
log(K), Mg^2+ + ATP^4− → [MgATP]^2− [4]: 4.34
log(K), Mg^2+ + HATP^3− → [Mg(HATP)]^− [4]: 2.39

O=P(O)(O)O[C@H]1[C@@H](OP(=O)(O)O)[C@H](OP(=O)(O)O)[C@@H](OP(=O)(O)OP(=O)(O)O)[C@H](OP(=O)(O)O)[C@H]1OP(=O)(O)O [5PP-InsP5]
proportion in axial conformation [5]: About 60%
proportion in axial conformation ([3]; pH* 8.5 (=pH 8.3) and higher, 5 equiv. Mg2+): exclusively the axial conformation
proportion in axial conformation ([3]; pH* 8.5, without divalent cations): about 10%
proportion in axial conformation [3, 6]: only detected in the axial conformation
